The nature of data set [1]: oral pharmacokinetics (plasma, brain, CSF). The format is in vivo, Sprague Dawley rats. The following applies: rat, per os 10 mg/kg; for Tmax: normal saline (* in 5% NMP, 5% Solutol HS, 90% normal saline).
Experimental: In another experiment, Sprague Dawley rats were dosed per os using a normal saline formulation containing 10 mg/kg of the compounds identified in the table below (except for the compounds marked with an asterisk (“*”) that were delivered in 5% NMP, 5% Solutol® HS and 90% normal saline formulation). Plasma, brain, and CSF samples were analyzed at various time points over a 24 hour period.
The subject of the next data set is rats. Briefly: positive emotional learning (PEL) test, 50-kHz ultrasonic vocalizations. The data set is classed as in vivo, rat. To be noted: PO, dose .1 mg/kg, one hour after administration. The method, then: Experiments were conducted as described in Burgdorf et al., “The effect of selective breeding for differential rates of 50-kHz ultrasonic vocalizations on emotional behavior in rats,” Devel. Psychobiol., 51:34-46 (2009). Rat 50-kHz ultrasonic vocalization (hedonic USVs) is a validated model for the study of positive affective state and is best elicited by rough-and-tumble play.
The PEL assay measures the acquisition of positive (hedonic) 50-kHz ultrasonic vocalizations (USVs) to a social stimulus, heterospecific rough and tumble play stimulation. Heterospecific rough-and-tumble play stimulation was administered by the experimenter's right hand. One hour after administration of test compound or vehicle negative control (0.5% sodium carboxymethyl cellulose in […] sterile saline), animals received 3 min of heterospecific rough-and-tumble play that consisted of alternating 15 sec blocks of heterospecific play and 15 sec of no-stimulation. High frequency ultrasonic vocalizations (USVs) were recorded and analyzed by sonogram with Avasoft SASlab Pro (Germany) as previously described by Burgdorf et al., “Positive emotional learning is regulated in the medial prefrontal cortex by GluN2B-containing NMDA receptors,” Neuroscience, 192:515-523 (2011). Frequency modulated 50-kHz USVs that occurred during each of the no-stimulation periods were quantified to measure PEL. Animals were not habituated to play stimulation before testing. Positive emotional learning was measured during the conditioned stimulus (CS) trials preceding the tickle unconditioned stimulus (UCS) trials. Animals received 15 second trials consisting of 6 CS and 6 UCS trials each (3 min total).
The table below summarizes the findings. As each experiment includes its own vehicle group, an example (typical) vehicle score is shown. Max effect (mean number of 50 kHz USVs per 15 seconds) is reported as ^: <6.0; *: 6-10.9; **: 11-16.9; ***: 17-22.

In another data set the test system is Sprague Dawley rats. Kind of data set: Bennett model of mechanical analgesia (sciatic nerve chronic constriction, paw withdrawal threshold).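 Also: log paw withdrawal threshold scaled from vehicle group mean (0%) to naive 15 g value (100%).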 The format is in vivo, rat. To be noted: 10 mg/kg PO. How it is done: The Bennett model of mechanical analgesia is used to assess the analgesic effects of compounds as measured by paw withdrawal threshold. Bennett GJ, Xie YK, “A peripheral mononeuropathy in rat that produces disorders of pain sensation like those seen in man,” Pain 33:87-107, 1988. […] Vehicle animals receive the surgery and then receive vehicle rather than test compound. Animals were tested 1 hr, 24 h and 1 wk post-test compound or vehicle administration.
Male 2-3 month old Sprague Dawley rats were used. Harlan was the supplier for all studies. Rats were housed in Lucite cages with aspen wood chip bedding, maintained on a 12:12 light:dark cycle (lights on at 5 AM), and given ad libitum access to Purina lab chow (USA) and tap water throughout the study.
Rats were anesthetized using inhaled isoflurane (2.5%). Sciatic nerve chronic constriction nerve injury surgery was performed as previously described (Bennett and Xie, 1988). An incision (˜1.5 cm in length) was made with a scalpel blade dorsally through skin on the right hind limb, parallel and posterior to femur. Using a small pointed hemostat, the biceps femoris and gluteus superficialis muscles were separated. Using curved blunt forceps, the common sciatic nerve was isolated and exposed. For the mechanical analgesia studies, the whole sciatic nerve was ligated. Using hemostats/forceps and chromic gut (5-0), the nerve was loosely ligated with a square knot; 3 ligatures, 1 mm apart were placed on the nerve. […] Testing occurred approximately 2 weeks post-surgery.
During testing, rats were acclimated to the surface of a suspended wire mesh grid (1 cm×1 cm, with the wire being 0.3 cm in diameter) for 15-20 min. Starting from the smallest, each Von Frey filament was pressed perpendicularly to the plantar surface of the affected (ipsilateral) hind paw until slightly bent and then held for 6 second. If an obvious hind paw withdrawal or a flinching behavior immediately after the withdrawal of the filament was not observed, the next larger filament was used in the same manner. In case of a response, a lower filament was used. This was repeated until six responses were collected.
For all studies, animals were baselined prior to study start to test for allodynia (defined as a paw withdrawal threshold under 5). A subset of animals was tested with gabapentin (150 mg/kg, PO) to ensure at least 50% analgesia. Once it was confirmed animals were ready for study initiation, animals were balanced across groups. All study investigators were blind to treatment conditions. Animals were dosed with 0.1, 1 or 10 mg/kg of test compound via oral gavage (PO), control sets of animals were dosed with gabapentin (150 mg/kg, PO) or vehicle (0.5% Na-CMC in 0.9% sterile saline, PO). Testing occurred 1 h post-dosing with animals retested 24 hrs and 1 week post-dosing. The percent analgesia calculations for each animal were made using the following equation: % analgesia=[(log(x)−y)/((log (z)−y)]*100, where x=the paw withdrawal threshold for the drug-treated animal in grams, y=the average of the log(x) values for the vehicle treated group, and z=the paw withdrawal threshold for naïve animals in grams (historical value of 15 used).
The results are shown in the table below where the percentage of analgesia is measured at 1 hour, 24 hours, and 1 week after compound administration. Since each study had its own gabapentin control group, an example gabapentin control value is shown.

The target of the next data set is T1, NMDAR2A (Homo sapiens, UniProt Q12879).
T1 construct: expressed in transfected cells; host or cells: HEK cells (membrane extract)
T1 sequence (Q12879 23-1464, species assumed, other chains not shown): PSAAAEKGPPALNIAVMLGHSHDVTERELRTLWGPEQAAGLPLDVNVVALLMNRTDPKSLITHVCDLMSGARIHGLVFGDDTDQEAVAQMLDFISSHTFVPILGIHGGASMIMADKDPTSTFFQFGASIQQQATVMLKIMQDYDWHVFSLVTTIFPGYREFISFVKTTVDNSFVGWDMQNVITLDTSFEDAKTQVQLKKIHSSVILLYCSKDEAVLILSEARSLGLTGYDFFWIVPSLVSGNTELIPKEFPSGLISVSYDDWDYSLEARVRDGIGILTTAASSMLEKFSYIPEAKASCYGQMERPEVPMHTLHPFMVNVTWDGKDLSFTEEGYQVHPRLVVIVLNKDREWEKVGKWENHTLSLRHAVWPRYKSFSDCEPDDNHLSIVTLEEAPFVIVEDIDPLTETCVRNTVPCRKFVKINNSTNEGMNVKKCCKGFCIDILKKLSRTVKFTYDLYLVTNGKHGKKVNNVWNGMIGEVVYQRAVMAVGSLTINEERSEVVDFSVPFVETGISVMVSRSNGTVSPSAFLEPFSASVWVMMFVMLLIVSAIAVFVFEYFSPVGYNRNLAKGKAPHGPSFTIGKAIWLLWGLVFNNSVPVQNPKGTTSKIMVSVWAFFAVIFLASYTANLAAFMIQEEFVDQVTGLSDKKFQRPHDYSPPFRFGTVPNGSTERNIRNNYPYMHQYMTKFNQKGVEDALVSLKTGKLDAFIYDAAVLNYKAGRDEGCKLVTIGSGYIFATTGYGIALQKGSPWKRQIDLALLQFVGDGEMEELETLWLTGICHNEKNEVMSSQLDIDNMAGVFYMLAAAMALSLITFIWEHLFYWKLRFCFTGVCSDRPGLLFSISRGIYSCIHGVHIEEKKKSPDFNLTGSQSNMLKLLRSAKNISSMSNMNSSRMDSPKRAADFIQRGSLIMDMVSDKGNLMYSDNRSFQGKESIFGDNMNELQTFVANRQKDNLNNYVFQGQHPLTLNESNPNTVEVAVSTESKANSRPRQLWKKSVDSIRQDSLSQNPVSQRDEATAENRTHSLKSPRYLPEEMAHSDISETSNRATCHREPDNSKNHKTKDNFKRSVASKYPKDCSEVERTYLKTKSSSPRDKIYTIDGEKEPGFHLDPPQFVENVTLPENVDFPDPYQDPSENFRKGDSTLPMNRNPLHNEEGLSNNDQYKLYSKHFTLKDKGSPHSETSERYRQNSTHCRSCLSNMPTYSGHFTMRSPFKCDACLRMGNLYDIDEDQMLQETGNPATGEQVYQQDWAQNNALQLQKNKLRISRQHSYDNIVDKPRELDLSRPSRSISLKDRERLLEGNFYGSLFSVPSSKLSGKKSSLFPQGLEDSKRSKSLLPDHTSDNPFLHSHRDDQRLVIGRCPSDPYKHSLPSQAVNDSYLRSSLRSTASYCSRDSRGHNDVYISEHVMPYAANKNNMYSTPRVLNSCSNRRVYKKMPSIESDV
Briefly: [3H]MK-801 binding in NMDAR expressing HEK cell membranes (facilitation of NMDAR activation). The data set is classed as biochemical. To be noted: 50 μM glutamate. The procedure, abridged:
(§1)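 HEK membranes (300 μg) expressing the NMDAR subunit were preincubated 15 min at 25 °C with 50 μM glutamate and compound ([…]−1×10^−7M), then with 0.3 μCi [3H]MK-801 for 15 min under nonequilibrium conditions and filtered. Baseline-subtracted DPM was expressed as % of 1 mM glycine, and EC50 and % maximal binding came from three-parameter curve fits.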

Another data set concerns the target T2, NMDAR2B (Homo sapiens, UniProt Q13224).
T2 construct: expressed in transfected cells; host or cells: HEK cells (membrane extract)
The description is as above. The format is biochemical. To be noted: 50 μM glutamate; for EC50: read-out: B: log EC50 (converted). The procedure, abridged: as §1

Another data set in a line: IV pharmacokinetics. The data set is classed as in vivo, Sprague Dawley rats. The following applies: rat, 2 mg/kg, normal saline (* in 5% NMP, 5% Solutol HS, 90% normal saline). An excerpt:
The table below summarizes the results of the IV pharmacokinetics.

The mark [2] stands for this setting: 0.25 h, read-out: A: % maximal [3H]MK-801 binding relative to 1 mM glycine.

Each structure is given as a SMILES string. Like-named read-outs stand apart in the source and are kept apart here.

T2 sequence (Q13224 27-1484, species assumed, other chains not shown): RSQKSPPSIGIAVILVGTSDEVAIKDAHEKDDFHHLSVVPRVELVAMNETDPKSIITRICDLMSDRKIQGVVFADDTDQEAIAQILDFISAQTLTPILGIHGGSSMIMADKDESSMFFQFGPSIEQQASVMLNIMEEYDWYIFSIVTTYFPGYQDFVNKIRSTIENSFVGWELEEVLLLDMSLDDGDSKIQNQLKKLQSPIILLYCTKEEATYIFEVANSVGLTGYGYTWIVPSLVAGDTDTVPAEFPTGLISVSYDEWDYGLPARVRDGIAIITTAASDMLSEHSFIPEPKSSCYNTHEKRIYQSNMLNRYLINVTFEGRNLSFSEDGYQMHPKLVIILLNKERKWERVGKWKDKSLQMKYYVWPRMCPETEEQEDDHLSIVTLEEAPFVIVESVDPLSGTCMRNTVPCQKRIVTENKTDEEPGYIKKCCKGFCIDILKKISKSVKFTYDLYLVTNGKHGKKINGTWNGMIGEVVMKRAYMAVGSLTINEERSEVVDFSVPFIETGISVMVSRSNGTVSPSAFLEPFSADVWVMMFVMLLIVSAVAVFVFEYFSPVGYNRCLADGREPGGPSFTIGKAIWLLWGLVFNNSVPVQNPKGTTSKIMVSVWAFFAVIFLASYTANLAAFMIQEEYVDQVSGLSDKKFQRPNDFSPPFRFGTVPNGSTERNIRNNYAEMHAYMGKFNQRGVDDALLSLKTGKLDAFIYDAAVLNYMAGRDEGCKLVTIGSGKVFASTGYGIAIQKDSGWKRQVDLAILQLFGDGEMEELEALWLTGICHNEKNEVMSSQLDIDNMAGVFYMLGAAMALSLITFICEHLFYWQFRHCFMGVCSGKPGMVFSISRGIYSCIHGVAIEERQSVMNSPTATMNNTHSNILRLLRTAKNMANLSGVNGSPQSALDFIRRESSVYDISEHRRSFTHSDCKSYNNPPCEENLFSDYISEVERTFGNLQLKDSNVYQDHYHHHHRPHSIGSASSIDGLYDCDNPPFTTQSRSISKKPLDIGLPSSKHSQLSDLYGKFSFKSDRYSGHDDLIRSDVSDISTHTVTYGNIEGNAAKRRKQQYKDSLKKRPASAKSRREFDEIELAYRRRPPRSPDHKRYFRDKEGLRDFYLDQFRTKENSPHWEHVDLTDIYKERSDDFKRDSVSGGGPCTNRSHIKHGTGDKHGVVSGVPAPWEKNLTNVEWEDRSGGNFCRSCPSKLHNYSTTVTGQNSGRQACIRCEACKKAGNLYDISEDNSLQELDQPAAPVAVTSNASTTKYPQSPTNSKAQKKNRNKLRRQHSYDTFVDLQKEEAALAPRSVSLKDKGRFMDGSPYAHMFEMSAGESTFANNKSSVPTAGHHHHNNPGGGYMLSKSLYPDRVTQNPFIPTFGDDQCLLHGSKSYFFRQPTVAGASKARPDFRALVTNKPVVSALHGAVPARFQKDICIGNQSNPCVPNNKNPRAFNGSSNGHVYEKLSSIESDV

In the case of `C[C@@H](O)[C@@H](C(N)=O)N1CC2(CCC(F)(F)CC2)C1=O` [Compound AO, (2S,3R)-2-(7,7-difluoro-1-oxo-2-azaspiro[3.5]nonan-2-yl)-3-hydroxybutanamide], the Tmax in data set [1] (Sprague-Dawley, plasma, po, 10 mg/kg, read-out: Tmax) came to 1 h. Besides, in data set [1] (Sprague-Dawley, plasma, po, 10 mg/kg, plasma, read-out: Cmax), the peak concentration (Cmax) is 7310 ng/mL. The “CSF Cmax” value in data set [1] came to 1676.3 ng/mL. Also, the “Max Effect (mean number of 50 kHz USVs per 15 seconds)” value in the data set on rats is recorded as “* (*: 6-10.9)”. Further, the figures for the “% analgesia” value in the data set with Sprague Dawley rats (1 wk), in the data set on Sprague Dawley rats (1 h) and in the data set with Sprague Dawley rats (24 h) were 18.2%, 23.7% and 7.5%, respectively. For the same compound, the Emax was 0% on NMDAR2A (setting [2]) and less than 100% on NMDAR2B (setting [2]). Besides, the 50% effective concentration (EC50) at NMDAR2B was less than 1 nM.
Turning to `C[C@@H](O)[C@H](NC1CCC2(CC1)CNC2=O)C(N)=O` (single isomer, unassigned) [AQ], in data set [1], the “% F” value turned out to be 16%, the “CSF Cmax” value was 65.84 ng/mL and the time of peak concentration (Tmax) was 1 h. Also, in data set [1] (brain), the “Brain Cmax” value amounted to 29.91 ng/mL. In data set [1] (plasma), the AUClast came to 1805.63 ng·h/mL and the Cmax is on record as 499.27 ng/mL. In the data set “IV pharmacokinetics” (Sprague-Dawley, in vivo, iv), the AUC(0-t) came out at 2290 ng·h/mL and the half-life was 3.84 h. In addition, in “IV pharmacokinetics” (Sprague-Dawley, in vivo, iv, read-out: C0), the C0 amounted to 3990 ng/mL. Also, the Vd in “IV pharmacokinetics” (Sprague-Dawley, in vivo, iv, read-out: Vss) is 1.22 L/kg. The CI in “IV pharmacokinetics” (intravenous 2 mg/kg) worked out at 14.64 mL/min/kg. The “Max Effect (mean number of 50 kHz USVs per 15 seconds)” value in the data set on rats is recorded as “** (**: 11-16.9)”. In addition, the “A: % maximal [3H]MK-801 binding relative to 1 mM glycine” value on NMDAR2A is “+ (<100%=+)”. Also, the EC50 on NMDAR2A (read-out: B: log EC50 (converted)) is not below 1 nM. Besides, on NMDAR2B, the “A: % maximal [3H]MK-801 binding relative to 1 mM glycine” value is given as “+ (<100%=+)” and the EC50 was less than 1 nM.

Source of the values: patent publication US10961189B2, “Spiro-lactam NMDA receptor modulators and uses thereof” (Aptinyx Inc., priority 2016, dated 2021).
